Results taken from PMC4106271 (Journal of Medicinal Chemistry, 2014).

Assay: Estimation of plasma levels after ip application (UHPLC-MS/MS)
Assay type: in vivo, mice
Conditions: mouse plasma
Experimental: At each time point, mice were euthanized and blood samples (500–800 μL) were collected and compiled into ethylenediaminetetraacetic acid (EDTA)-coated microtubes (1.6 mg of EDTA/sample) and centrifuged at 12 000 rpm for 5 min at 4 °C. Plasma samples were transferred into 1.5 mL tubes and stored at −80 °C until analysis.
Plasma calibrators were prepared by spiking corresponding stock solutions into a blank plasma sample.
Samples were vortexed at 1400 rpm for 10 min and then centrifuged at 13200g for 20 min at 10 °C. The supernatant was transferred into a 96-deep-well plate for drying under nitrogen gas flow (Evaporex EVX-96, Apricot Designs, Monrovia, CA) and redissolved in 200 μL of injection solvent (65% 10 mM ammonium formate + 0.05% formic acid, 35% acetonitrile + 0.05% formic acid) before MS/MS analysis.
Separation was performed at 55 °C on a Kinetex XB-C18 column, 100 × 2.1 mm, 1.7 μm particle size (Phenomenex; Torrance, CA); mobile phase of (A) 0.05% formic acid in 10 mM ammonium formate and (B) 0.05% formic acid in ACN, gradient 40% B for 1 min, linear gradient to reach 88% B after 5.3 min, shifted to 100% B for 1 min, and back to equilibrium condition of 40% B for 0.7 min; flow rate of 0.5 mL/min; total run time of 7 min. Sample injected volume was 1 μL and autosampler was set at 10 °C. Needle wash solution was MeOH/ACN/IPA/H2O (1:1:1:1 v/v/v/v). Flexible cube was set at a flow rate of 1 mL/min for 20 s.

**Q.** Which results are given for `CCCN(CCC)C(=O)/C=C/C=C/c1ccc2c(c1)OCO2` [Compound 23, (2E,4E)-5-(1,3-benzodioxol-5-yl)-N,N-dipropyl-2,4-pentadienamide]?
**A.** mean plasma concn (1 mg/kg body weight ip): 60.6 ± 14.5 ng/mL; mean plasma concn (3 mg/kg body weight ip): 194.0 ± 50.2 ng/mL; mean plasma concn (10 mg/kg body weight ip): 593.0 ± 92.4 ng/mL
